US9522935B2, “Commands and method of treating cancer via RHO pathway” (priority 2013, dated 2016)

What was measured:
[1] = Toxicity study of LD030 on BALB/c mice; type: in vivo
Procedure: LD030 animal toxicity experiments were conducted in adult BALB/c mice. The mice were subject to a […] dosage of 1-16 mg/Kg via peritoneal injection. […] The results confirmed that at a dosage as high as 16 mg/Kg LD030 is safe to BALB/c. By short-term toxicological experiment, the half-lethal dose LD50 (under continuous treatment) is 4 mg/kg, and the median effective dose ED50 of 0.2 mg/kg, resulting in a therapeutic Index of 20 (that is, LD50/ED50≈20).

[2] = tested on: HepG2 cells; assay: Flow cytometry (PI staining) for apoptosis of HepG2 cells; type: cell-based, human; settings: HepG2, 24 hours, 0.03-17.5 μM
Procedure: The study was conduct by using flow cytometry to detect apoptosis of HepG2 cells after being treated for 24 hours with LD030 at concentrations 0.03 μM, 0.14 μM, 0.7 μM, 3.5 μM, and 17.5 μM along with blank control. Then proceeded as follows:
1. Collect cells (1-5×10^6/mL), centrifuge at 500-1000 r/min for 5 min, and discard the culture medium.
2. Wash the cells with 3 ml PBS once.
3. Centrifuge to discard PBS, and add 70% ice-cold ethanol for fixation, 4° C., 1-2 hours.
4. Centrifuge to discard ethanol, and re-suspend in 3 ml PBS for 5 min.
5. Filter with a 400 mesh screen, and centrifuge 500-1000 r/min for 5 min to discard PBS.
6. Stain with 1 ml propidium iodide (Propidium Iodide, PI) at 4° C. in the dark for 30 min.
7. Conduct flow cytometry.

[3] = tested on: pancreatic cancer cell lines; assay: Nude mouse model of pancreatic cancer (xenograft), tumor size; type: in vivo, NOD/SCID mice; settings: 43 days; for tumor volume reduced: FIG. 15
Procedure: Two strains of pancreatic cancer cell lines were selected to be grafted to nonobese diabetic/severe combined immunodeficient (NOD/SCID) mice, and the tumor was inoculated in mouse ventral sides. About two weeks, they were used as a nude mouse model of pancreatic cancer. […] Each of the above groups. The treatment continued for 43 days (gemcitabine alone group 2 times a week; other groups 3 times a week), and then tumor size was recorded as shown in FIG. 16. […] Further experiments were conducted to study the effects of the combinational use of LD030 with gemcitabine as compared being used alone on tumor inhibition. Four treatment groups were set up: (a) blank control, (2) gemcitabine (25 mg/kg/time, 2 times a week), (3) LD030 (0.5 mg/kg/time, 3 times a week), (4) LD030 (0.5 mg/kg/time, 3 times a week) together with gemcitabine (25 mg/kg/time, 2 times a week).

[4] = tested on: PancI (pancreatic cancer cell line); assay: MTT assay, LD030 on PancI; type: cell-based; settings: Homo sapiens, 48 hours, read-out: inhibition rate on cell growth
Procedure: MTT assay, a well known method known in the art, was used to analyze anticancer effects of compound LD030 on human cancer cell lines, such as, HepG2 (liver cancer cell line), PancI (pancreatic cancer cell line), NCI-H460 (lung cancer cell line), MCF-7 (breast adenocarcinoma cell line) and SF-268 (brain tumor cell lines). An LD030 solution was diluted gradually to obtain a serial of LD030 solutions with decreasing concentrations, which was used to treat various cancer cell lines mentioned above incubated in separate container. […] For incubating with HepG2 cell line, LD030's concentrations were 0.001 μM, 0.01 μM, 0.1 μM, 1 μM, 10 μM, 100 μM. For PancI cell line, the concentrations were 0.1 μM, 1 μM, 10 μM, 100 μM. For NCI-H460 cell line, the concentrations were 0.001 μM, 0.01 μM, 0.1 μM, 1 μM, 10 μM, 100 μM. For MCF-7 cell line, the concentrations were 0.001 μM, 0.01 μM, 0.1 μM, 1 μM, 10 μM, 100 μM. For SF-268 cell line, the concentrations were 0.001 μM, 0.01 μM, 0.1 μM, 1 μM, 10 μM, 100 μM.

[5] = tested on: p-STAT3, p-JAK2, Bcl-XL, apoptosis protease 3, 9; assay: Protein electrophoresis of extracts from treated allograft mouse; type: in vivo; settings: 0.01 mg/kg intraperitoneal injection, three times a week; versus control mouse
Procedure: LD030's effect on the growth of allograft pancreatic cancer cell lines was further studied as follows: Each mouse model was given 0.01 mg/kg LD030 via intraperitoneal injection, three times a week. […] Extracted from the treated mouse and the control mouse, the phosphorylation-signal transduction and activator of transcription (p-STAT3), phospho-JAK2 (p-JAK2), Bcl-XL, apoptosis protease 3, 9 and GADPH (glyceraldehyde-3-phosphate dehydrogenase, or […]) were subject to protein electrophoresis. […] GADPH was used as an internal reference, the expression of which was basically unchanged.

[6] = tested on: Jak/STAT phosphorylation in PancI cells; assay: Western Blotting of signal pathway proteins in PancI cells; type: cell-based, human
Procedure: The Jak/STAT channel plays an important role in cell growth, proliferation, and survival. Using Western Blotting, the present invention studied the effect of LD030 on Jak/STAT phosphorylation in PancI cells.
The cells were treated with LD030 at concentrations of 20 μM and 50 μM, for 4 hours, 8 hours, 24 hours, and 48 hours. After the treatment, the cells were collected and subject to lysis in the buffer (50 mM Tris-HCl pH7.5, 100 mM NaCl, 5 mM EDTA, 40 mM NaP2O7, 1% Triton X-100, 1 mM dithiothreitol, 200 μM Na3VO4, 100 μM phenylmethysufonyl fluoride fluoride, 2 μg/ml leupeptin, 4 μg/ml aprotinin and 0.7 μg/ml pepstatin). Analysis of stained protein (BioRad, 500-0006) was conduct for adjusting the protein concentration. Same quantity of protein (50 μg/lane) was used for 10% SDS-polyacrylamide gel electrophoresis, and then electrically transferred to the polyvinylidene fluoride (PVDF) membrane. The membrane was treated with antibodies specific to p-Jak2 (Cell signaling, 3771), p-Stat3 (Cell signaling, 9131) and α-tubulin (Zymed Laboratories, 32-2500). Visible protein bands were detected with an enhanced chemiluminescence (ECL Plus) detection system (Amersham).
The protein electrophoresis results in the above described experiments are shown FIGS. 23 and 24 for LD030 treatments at 20 μM and 50 μM, respectively. […] The expression of tubulin as internal reference was basically unchanged.

[7] = 20 μM, at 24 hours and 48 hours, versus blank control
[8] = 50 μM, at 24 hours and 48 hours, versus blank control

CC(=O)OC(C)(C)C(=O)CCC(C)C1CC[C@@]2(C)C34CC[C@H]5C(C)(C)[C@@H](O)CC[C@]5(C)C3(CC[C@]12C)O4 (stereo partly shown) [LD030]
therapeutic Index (LD50/ED50) ([1]; BALB/c, mouse, in vivo): 20 | LD50 ([1]; BALB/c, mouse, in vivo, short-term toxicological experiment, under continuous treatment, read-out: half-lethal dose LD50): 4 mg/kg | ED50 ([1]; Mus musculus, read-out: median effective dose ED50): 0.2 mg/kg | toxicity observed ([1]; adult BALB/c mice, 1-16 mg/Kg via peritoneal injection): No significant toxicity | survival ([1]; adult BALB/c mice, 1-16 mg/Kg via peritoneal injection, after 14 days): still alive | cell lysis by flow cytometry [2]: greater proportions of cell lysis with increased LD030 concentrations | tumor volume reduced ([3]; 0.5 mg/kg/time LD030, 3 time a week): 21% | tumor volume reduced ([3]; 1 mg/kg/time LD030, 3 time a week): 62% | tumor size reduced ([3]; LD030 0.5 mg/kg/time, 3 times a week, FIG. 17): 21% | inhibition at 100 µM [4]: > 80% | expression of Bcl-XL [5]: significantly reduced | expression of apoptosis protease 3, 9 [5]: significantly increased | expression of p-JAK2 [5]: significantly reduced | expression of p-STAT3 [5]: significantly reduced | p-jak2 [6, 7]: significantly reduced | p-stat3 (tyr705) [6, 7]: significantly reduced | p-JNK ([6]; 20 μM, versus blank control): up-regulates | p-ERK [6, 8]: significantly reduced | p-c-raf [6, 8]: significantly reduced | expression of Cyclin D1 ([6]; 50 μM, at 48 hours): decreased | expression of p-JNK ([6]; 50 μM, versus blank control): increased | expression of p-p38 ([6]; 50 μM, versus blank control): increased
